The CC50 is the concentration at which the toxic effect on the cells reaches its halfway point. Broadly, the EC50 is the concentration at which the effect is half-maximal. Broadly, the IC50 is the concentration that gives 50% inhibition.

Data set [1] can be described thus: Cytotoxicity against African green monkey Vero E6 cells assessed as reduction of cell viability measured after 48 hrs by CCK-8 assay. The class given is toxicity, cell-based, Vero C1008. The conditions noted are these: chlorocebus sabaeus. (Formazan colour is commonly taken as a measure of viable cells.)
A short description of data set [2]: Selectivity index, ratio of CC50 for African green monkey Vero E6 cells to EC50 for antiviral activity against SARS-CoV-2 2019BetaCoV/Wuhan/WIV04/2019. The class given is toxicity, Vero C1008. Conditions: read-out: Selectivity Index.
Data set [3] concerns SARS-CoV-2. The data set can be described thus: Antiviral activity against SARS-CoV-2 2019BetaCoV/Wuhan/WIV04/2019 infected in African green monkey Vero E6 cells assessed as inhibition of viral replication measured after 48 hrs. Conditions: Severe acute respiratory syndrome coronavirus 2, 2019BetaCoV/Wuhan/WIV04/2019, Vero C1008, 48 h. The class given is functional, organism-based.

Data set [4] has as its target Replicase polyprotein 1ab (Severe acute respiratory syndrome coronavirus 2, UniProt P0DTD1). The data set can be described thus: Inhibition of SARS-CoV-2 main protease.
The subject of data set [5] is SARS-CoV-2. In words: Antiviral activity against SARS-CoV-2 infected in African green monkey Vero cells assessed as inhibition of viral replication. The class given is functional, organism-based. Conditions: Severe acute respiratory syndrome coronavirus 2, Vero.
A short description of data set [6]: Cytotoxicity against african green monkey Vero cells. The data set is classed as toxicity, cell-based. Conditions: chlorocebus sabaeus.
The nature of data set [7]: Selectivity index, ratio of CC50 for African green monkey Vero cells to EC50 for antiviral activity against SARS-CoV-2. The data set is classed as toxicity. The conditions noted are these: read-out: Selectivity Index.

In the case of `NC(=O)c1nc(F)c[nH]c1=O`, the CC50 at 48 h in data set [1] is more than 400 µM. Moreover, in data set [2], the selectivity ratio was more than 6.46.
Regarding `CCN(CC)CCCC(C)Nc1ccnc2cc(Cl)ccc12` (stereo not drawn) [CHLOROQUINE], the EC50 in the data set with SARS-CoV-2 [3] amounted to 1.13 µM. Also, the CC50 at 48 h in data set [1] was more than 100 µM.
For `Cc1cccc(C)c1OCC(=O)N[C@@H](Cc1ccccc1)[C@@H](O)C[C@H](Cc1ccccc1)NC(=O)[C@H](C(C)C)N1CCCNC1=O` [LOPINAVIR], the IC50 in data set [4] is 9.12 µM.
For the compound `N=C(N)c1ccc2cc(OC(=O)c3ccc(N=C(N)N)cc3)ccc2c1` [NAFAMOSTAT], in the data set with SARS-CoV-2 [5], the EC50 turned out to be 22.5 µM. Also, in data set [6], the CC50 was more than 100 µM. The selectivity ratio in data set [7] was found to be 4.44.
As for `O=C(Nc1ccc([N+](=O)[O-])cc1Cl)c1cc(Cl)ccc1O` [NICLOSAMIDE], the half-maximal effective concentration (EC50) in the data set with SARS-CoV-2 [3] turned out to be 2.12 µM. In addition, the half-maximal cytotoxic concentration (CC50) at 48 h in data set [1] is more than 35.5 µM.
Consider `Nc1nc2c(ncn2CCC(CO)CO)c(=O)[nH]1` [PENCICLOVIR], for which the CC50 at 48 h in data set [1] is more than 400 µM. For the same compound, the selectivity ratio in data set [2] is more than 4.17.
Take `NC(=O)c1ncn([C@@H]2O[C@H](CO)[C@@H](O)[C@H]2O)n1` [RIBAVIRIN]: the 50% cytotoxic concentration (CC50) at 48 h in data set [1] is more than 400 µM.

Source of the values: ChEMBL document CHEMBL5244244, “Fight against novel coronavirus: A perspective of medicinal chemists” (Eur J Med Chem, 2020).
